Experimental findings from BindingDB's records for doi:10.1021/jm500892k (Shandong University, 2014) are described below.

Each structure is given as a SMILES string. pIC50: −log10 of the molar value.

Assay [1] is described as follows: Inhibition of Influenza A virus A/duck/china/QJ/01(H5N1) Neuraminidase.
Assay [2] in a line: Inhibition of Influenza A virus A/duck/china/1206/2012(H5N1) Neuraminidase.
Assay [3] can be described thus: Inhibition of Influenza A virus A/chicken/shandong/S2/02(H9N2) Neuraminidase.

In the case of `CCC(CC)O[C@@H]1C=C(C(=O)NO)C[C@H](NC(=N)N)[C@H]1NC(C)=O`, the values for the pIC50 in assay [1], in assay [2] and in assay [3] were less than 6.70, less than 6.70 and 6.80, respectively.
Turning to `CCC(CC)O[C@@H]1C=C(C(=O)NO)C[C@H](N)[C@H]1NC(C)=O`, the pIC50 (as a rule, the negative decadic logarithm of the IC50, by convention in mol/L) in assay [1] is 6.74; in assay [2], less than 6.70; in assay [3], 6.92.
The matching figures for `CCC(CC)O[C@@H]1C=C(C(=O)O)C[C@H](N(Cc2cccs2)C(=N)N)[C@H]1NC(C)=O`: 6.72, 7.06 and 6.46.
`CCC(CC)O[C@@H]1C=C(C(=O)O)C[C@H](N(Cc2ccccc2)C(=N)N)[C@H]1NC(C)=O`: the pIC50 was less than 5.52 in assay [1] and 5.52 in assay [2].
In the case of `CCC(CC)O[C@@H]1C=C(C(=O)O)C[C@H](N(Cc2ccc(C(C)C)cc2)C(=N)N)[C@H]1NC(C)=O`, the pIC50 in assay [1] was 5.49; in assay [2], 5.81; in assay [3], 5.67.
In the case of `CCC(CC)O[C@@H]1C=C(C(=O)O)C[C@H](N(Cc2ccccc2OC)C(=N)N)[C@H]1NC(C)=O`, the pIC50 in assay [2] is 6.60; in assay [3], 6.44.
`CCC(CC)O[C@@H]1C=C(C(=O)O)C[C@H](N(Cc2ccc(-c3ccccc3)cc2)C(=N)N)[C@H]1NC(C)=O`: the pIC50 was 6.37 in assay [1], 6.57 in assay [2] and 6.43 in assay [3].
For the molecule `CCCN(C(=N)N)[C@H]1CC(C(=O)O)=C[C@@H](OC(CC)CC)[C@@H]1NC(C)=O`, the pIC50 in assay [1] was 5.41; in assay [2], 5.94; in assay [3] it was less than 5.30.
In the same order, the values of `CCC(CC)O[C@@H]1C=C(C(=O)O)C[C@H](N(CC(C)C)C(=N)N)[C@H]1NC(C)=O` are 6.35, 6.41 and less than 5.30.
The matching figures for `CCCCCN(C(=N)N)[C@H]1CC(C(=O)O)=C[C@@H](OC(CC)CC)[C@@H]1NC(C)=O`: less than 5.52, 5.44 and less than 5.30.
With `CCCCN(C(=N)N)[C@H]1CC(C(=O)O)=C[C@@H](OC(CC)CC)[C@@H]1NC(C)=O`, the results for the pIC50 in assay [1], in assay [2] and in assay [3] were less than 5.52, less than 5.52 and less than 5.91, respectively.
On to `CCC(CC)O[C@@H]1C=C(C(=O)O)C[C@H](N(CCC(C)C)C(=N)N)[C@H]1NC(C)=O`, for which the negative logarithm of the IC50 (pIC50) in assay [1] was less than 5.52; in assay [2], 5.60; in assay [3], 5.31.
The matching figures for `CCC(CC)CN(C(=N)N)[C@H]1CC(C(=O)O)=C[C@@H](OC(CC)CC)[C@@H]1NC(C)=O`: less than 5.52, less than 5.52 and less than 5.30.
Take `CCC(CC)O[C@@H]1C=C(C(=O)O)C[C@H](N(CCCc2ccccc2)C(=N)N)[C@H]1NC(C)=O`: the pIC50 is less than 5.52 in assay [1], 5.75 in assay [2] and less than 5.30 in assay [3].
With `CCC(CC)CN[C@H]1CC(C(=O)O)=C[C@@H](OC(CC)CC)[C@@H]1NC(C)=O`, the results for the pIC50 in assay [1], in assay [2] and in assay [3] were 6.27, 7.37 and 7.15, respectively.
On to `CCCCN[C@H]1CC(C(=O)O)=C[C@@H](OC(CC)CC)[C@@H]1NC(C)=O`, for which the results for the negative-log IC50 (pIC50) in assay [1], in assay [2] and in assay [3] were 7.12, 7.25 and 6.20, respectively.
For the molecule `CCC(CC)O[C@@H]1C=C(C(=O)O)C[C@H](NCC(C)C)[C@H]1NC(C)=O`, the figures for the pIC50 in assay [1], in assay [2] and in assay [3] were 7.00, 7.08 and 5.76, respectively.
On to `CCC(CC)O[C@@H]1C=C(C(=O)O)C[C@H](NCc2cccs2)[C@H]1NC(C)=O`, for which the pIC50 in assay [1] is 7.27; in assay [2], 7.28; in assay [3], 7.00.
Consider `CCC(CC)O[C@@H]1C=C(C(=O)O)C[C@H](NCc2ccccc2)[C@H]1NC(C)=O`, for which the results for the pIC50 in assay [1], in assay [2] and in assay [3] were 7.10, 7.72 and 6.38, respectively.
`CCC(CC)O[C@@H]1C=C(C(=O)O)C[C@H](NCc2ccccc2OC)[C@H]1NC(C)=O`: the pIC50 was less than 5.70 in assay [1], 6.93 in assay [2] and 6.60 in assay [3].
On to `CCC(CC)O[C@@H]1C=C(C(=O)O)C[C@H](NCc2ccccc2O)[C@H]1NC(C)=O`, for which the pIC50 in assay [1] was 6.71; in assay [2], 7.20; in assay [3], 5.30.
On to `CCC(CC)O[C@@H]1C=C(C(=O)O)C[C@H](NCc2ccccc2Cl)[C@H]1NC(C)=O`, for which the pIC50 was 7.54 in assay [1], 7.85 in assay [2] and less than 6.37 in assay [3].
Regarding `CCC(CC)O[C@@H]1C=C(C(=O)O)C[C@H](NCc2ccccc2Br)[C@H]1NC(C)=O`, the pIC50 in assay [1] was 7.25; in assay [2] it was 7.42; in assay [3], 7.38.
Turning to `CCC(CC)O[C@@H]1C=C(C(=O)O)C[C@H](NCc2ccccc2F)[C@H]1NC(C)=O`, the results for the pIC50 in assay [1], in assay [2] and in assay [3] were 6.97, 7.05 and 6.19, respectively.
Regarding `CCC(CC)O[C@@H]1C=C(C(=O)O)C[C@H](NC/C=C/c2ccccc2)[C@H]1NC(C)=O`, the pIC50 was 6.97 in assay [1], 7.32 in assay [2] and 5.49 in assay [3].
With `CCC(CC)O[C@@H]1C=C(C(=O)O)C[C@H](NCc2ccc(-c3ccccc3)cc2)[C@H]1NC(C)=O`, the pIC50 in assay [1] is 8.17; in assay [2], 8.42; in assay [3], 6.24.
On to `CCC(CC)O[C@@H]1C=C(C(=O)O)C[C@H](NCCCc2ccccc2)[C@H]1NC(C)=O`, for which the pIC50 in assay [1] was 6.72; in assay [2], 7.09; in assay [3], less than 5.30.
On to `CCC(CC)O[C@@H]1C=C(C(=O)O)C[C@H](NCCCN)[C@H]1NC(C)=O`, for which the pIC50 in assay [1] was less than 6.70; in assay [2], less than 6.70; in assay [3], 5.98.
`CCC(CC)O[C@@H]1C=C(C(=O)O)C[C@H](NCc2ccccc2OCc2ccco2)[C@H]1NC(C)=O`: the pIC50 was less than 6.70 in assay [1], less than 6.70 in assay [2] and 6.14 in assay [3].
Take `C=CCOc1ccccc1CN[C@H]1CC(C(=O)O)=C[C@@H](OC(CC)CC)[C@@H]1NC(C)=O`: the values for the negative-log IC50 (pIC50) in assay [1], in assay [2] and in assay [3] were less than 6.70, less than 6.70 and 5.72, respectively.
Take `CCC(CC)O[C@@H]1C=C(C(=O)O)C[C@H](NCc2ccc(-c3ccccc3)cc2Cl)[C@H]1NC(C)=O`: the pIC50 in assay [1] is 7.36; in assay [2], 7.57; in assay [3] it was 6.47.
In the case of `CCC(CC)O[C@@H]1C=C(C(=O)O)C[C@H](NCc2ccc(-c3ccccc3)cc2-c2ccccc2)[C@H]1NC(C)=O`, the negative-log IC50 (pIC50) in assay [1] is 7.24; in assay [2], 7.41; in assay [3], 7.42.
The matching figures for `CCC(CC)O[C@@H]1C=C(C(=O)O)C[C@H](NCc2ccc(-c3cccs3)cc2)[C@H]1NC(C)=O`: 7.85, 8.37 and 6.68.
In the same order, the values of `CCC(CC)O[C@@H]1C=C(C(=O)O)C[C@H](NC(=N)N)[C@H]1NC(C)=O` [Guanidino-Oseltamivir Carboxylicacid] are 8.59, 8.64 and 7.96.
